We go through ten molecules from US20240131155A1, “T CELLS FOR USE IN THERAPY” (Erasmus University Medical Center Rotterdam, priority 2021, published 2024).

Like-named read-outs stand apart in the source and are kept apart here. Peptide text beside a SMILES is read from it.

Test [1] deals with T1, HLA-A2 (Homo sapiens, UniProt P04439, D140Y/D185E/D98H/E176V/E277Q/G131W/G231S/I119V/I121R/I166T/I218V/L300P/L318F/N151K/N90K/P208A/P217A/Q86G/Q94H/R138H/R169H/T345S).
T1 construct: The HLA-A2 stabilization assay was performed using T2 cells; endogenous in cells; host or cells: T2 cells (LCLxT lymphoblastoid hybrid cell line 0.1743CEM.T2)
Nature of the test: HLA-A2 stabilization assay using T2 cells. Format: binding. Particulars: for binding to HLA-A2: in words, peptides derived from immunopeptidome.

The test system of test [2] is CD8+ T cells. Nature of the test: Enrichment of epitope-specific CD8 T cells from healthy donors, epitope-specific IFNg production (ELISA). Particulars: positive co-cultures / co-cultures tested. Format: cell-based, human. As to the method: (§1) Enrichment of epitope-specific CD8 T cells was performed according to the protocol described by Butler et al., Clin Cancer Res.;13(6):1857-1867 (2007), doi:10.1158/1078-0432, but included the following amendments. CD8+ T lymphocytes were collected from PBMCs by magnetic-activated cell sorting (MACS) according to the CD8 isolation kit (Miltenyi Biotec). CD8+ T cells with >95% purity were subsequently cultured in T cell medium supplemented with IL-2 (36 IU/mL; but no gentamycin) for 1 day, after which expansion cycles started. K562ABC cells (kindly provided by prof. Bruce Levine, University of Pennsylvania, PA) were loaded with 10 μg/ml ROPN1 and/or ROPN1B peptide and incubated for 5 h at RT in serum-free medium, after which cells were washed and fixed with 0,1% paraformaldehyde. After washing, K562ABC cells were suspended at 0.1×10^6/mL and co-cultured with T cells in a 1:20 ratio. IL-2 (36 IU/mL) and IL-15 ([…]) were added at days 1 and 3 days after start of co-culture, and after 6 days, T cells were counted, suspended at 2×10^6/mL and rested for 1 day, after which the next cycle commenced (this schedule continued up to 4 or 5 cycles). Following 4 and 5 cycles, T cells were stained with pMHC multimers (HLA*0201/MLN, Immudex, Copenhagen, Denmark). pMHC-PE were pre-incubated at RT for 10 min followed by incubation with 7AAD, anti-CD3-FITC and anti-CD8-APC for 20 min. Cells were fixed with 1% paraformaldehyde and TCR expression was measured with flow cytometry and analyzed using FlowJoX software. FIG. 4A schematically depicts the procedure to enrich epitope-specific T cells, and obtainthe corresponding TCR genes.
Enriched T cells were tested for ROPN1 and/or ROPN1B epitope-specific IFNY production. To this end, T2 cells (4×10^6/mL) were loaded with peptide (20 ng/mL) for 30 min. T cells (2×10^5) were cultured in a 1:1 ratio with T2 cells in a round bottom 96-wells plate, and the next day supernatant was collected and IFN-γ production was measured with an Enzyme-linked immunosorbent assay (ELISA, Invitrogen) according to manufacturer's protocol (FIG. 4B). T2 cells without peptide were included as a negative control; and staphylococcal enterotoxin B (0.1 μg, Sigma) was used as a positive control.
Enrichment of epitope-specific T cells was performed by co-culturing naïve T cells with CD11c-positive cells that were loaded with peptide. PBMCs were passed through a cell strainer (70 μm) and used for the isolation of naïve T cells and CD11c cells. To isolate CD11c-positive cells (typically dendritic cells, DC), PBMCs were stained for 10 mM at 4° C. with Fc block (10 μL/10^7 PBMCs, BD Pharmingen, Vianen, the Netherlands), after which cells were stained with CD11c-PE antibody (10 μL/10^7 PBMCs, BD Pharmingen) for 30 mM at 4° C., washed, and incubated with PE beads (10 μL/10^7 PBMCs, Miltenyi Biotech, Bergisch Gladbach, Germany) for another […] at 4° C. After washing, cells were dissolved in magnetic-activated cell sorting (MACS) buffer and passed through a MACS LS column (Miltenyi Biotec) to positively select CD11c cells. After selection, CD11c cells were irradiated with 30 Gy, and cultured overnight in a 24-wells plate (1×10^6/mL) in RPMI medium supplemented with 1% human serum (Sanquin), 1% antibiotics, […] L-glutamine, a DC maturation cocktail (a mixture of GM-CSF (10 ng/mL, ImmunoTools, Germany), IL-4 (10 ng/mL, ImmunoTools), LPS (100 ng/mL, Invitrogen, Goteborg, Sweden) and IFNY (10 ng/mL, Preprotech, London, United Kingdom)), as well as peptide (10 pg/mL). Naïve T cells were isolated with use of the Naïve T Cell isolation kit (Miltenyi Biotec) according to the manufacturer's protocol, and suspended in RPMI medium supplemented with 5% human serum (Sanquin), 1% antibiotics, […] L-glutamine and IL-7 (5 ng/mL, BD Pharmingen). The run-through of the naïve T cell selection was frozen down and used for re-stimulation of epitope-specific T cells. […]

Test [3] concerns CD8+ T cells. Nature of the test: peptide:MHC multimer/tetramer staining of enriched T cells (flow cytometry). Format: cell-based, human. Particulars: Table 4; enriched T cells after enrichment cycles. How it is done:
as §1
Following enrichment, T cells were tested for ROPN1 and/or ROPN1B epitope-specific IFNY production. To this end, T2 cells (1×10^6/mL) were loaded with peptide (20 ng/mL) for 30 min, after which T cells (1×10^5) were cultured in a 1:1 ratio with T2 cells in a round bottom 96-wells plate for 18 h. Supernatant was collected and IFN-γ production was measured with an Enzyme-linked immunosorbent assay (ELISA, BioLegend) according to the manufacturer's protocol (FIG. 9A). T2 cells loaded with an irrelevant peptide were included as a negative control. T cell IFNg production was considered epitope-specific in case levels exceeded 200 pg/ml, and levels were minimally twice as high as for irrelevant peptide (see for full listing of criteria, FIG. 8). T cells that fulfilled these criteria were stained with peptide:MHC (pMHC) tetramers to determine the frequency of epitope-specific T cells. Empty Loadable HLA Tetramers (5 μL, Tetramer shop, Kongens Lyngby, Denmark) were incubated with 0.5 μL peptide (200 μM) for 30 min on ice. Complexes of pMHC were centrifuged (3300 g, 5 min) and incubated with 0.1×10^6 T cells for 15 min at 37° C. in the dark. Next, an antibody cocktail containing CD3-FITC (1:30, BD) and CD8-APC (1:300, eBiosciences) was added and incubated for an additional 30 min at 4° C. in the dark. Finally, T cells were washed twice and fixed with 1% paraformaldehyde (PFA), after which events were acquired with FACSCelesta (BD) and analyzed using FlowJoX software.

The target of test [4] is T2, HLA-A2 (HLA-A2:01) on T2 cells (human).
T2 construct: detected with anti-HLA-A2 mAb BB7.2
Nature of the test: HLA-A2 stabilization assay on T2 cells (anti-HLA-A2-PE, flow cytometry), single peptide concentration [panel D]. A general note: In flow cytometry, cells or beads pass a laser one at a time.

Test [5] concerns the target T2, HLA-A2 (HLA-A2:01) on T2 cells. Nature of the test: HLA-A2 stabilization assay on T2 cells (anti-HLA-A2-PE, flow cytometry), single peptide concentration 25 ug/mL [panel E].
Test [6] has the same target. Nature of the test: HLA-A2 stabilization assay on T2 cells, peptide titration (Example 2, repeated); column Affinity for HLA.A2.01 (M).
For test [7] the target is unchanged. Nature of the test: HLA-A2 stabilization assay on T2 cells, peptide titration, flow cytometry with anti-HLA-A2 BB7.2; column Affinity for HLA A2:01 (M).
Test [8] has the same target. Nature of the test: HLA-A2 stabilization assay on T2 cells, peptide titration; amplitude relative to that of reference peptide YLE [panel D].
The target is the same in test [9]. Nature of the test: HLA-A2 stabilization assay on T2 cells, peptide titration; amplitude = highest data point corrected for baseline [panel E].
Where [10] appears, read: Example 1, top-ranked epitopes, no legible unit, read-out: EC50 (HLA-A2 binding).
The mark [11] stands for this setting: Table 2 (Example 1), EC50 of peptide titration on T2 cells, read-out: Affinity for HLA A2:01.
Where [12] appears, read: Table 4 (Examples 1 and 2), EC50 of peptide titration on T2 cells, read-out: Affinity for HLA.A2.01.
[13] abbreviates: Table 2 (Example 1), healthy donor T cells.

For `CC[C@H](C)[C@H](NC(=O)[C@H](CCCCN)NC(=O)[C@H](CC(C)C)NC(=O)[C@@H](NC(=O)[C@@H](N)CCCCN)[C@@H](C)O)C(=O)N[C@H](C(=O)N[C@@H](CS)C(=O)N[C@@H](CCC(=O)O)C(=O)N[C@H](C(=O)O)C(C)C)C(C)C` (H-KTLKIVCEV-OH; N-terminus and C-terminus assumed), the results for the EC50 in [1] (setting [10]), in [1] (setting [11]) and in test [1] (setting [12]) were 4.4 µM, 4.35 µM and 4.4 µM, respectively. Moreover, the “T cell responses observed (IFNg) against epitope” value (shortened to “T cell responses observed (IFNg)”) in test [2] (setting [13]) and in test [2] (Table 4) was 2/4 co-cultures in each case. For the same molecule, the “pMHC staining % pMHC+ CD8+ in CD3+” value in test [3] is recorded as 0.28%.

With `CC(C)C[C@H](NC(=O)[C@H](C)N)C(=O)N[C@@H](C)C(=O)N[C@@H](CS)C(=O)N[C@@H](CO)C(=O)N[C@@H](C)C(=O)N[C@@H](CC(C)C)C(=O)NCC(=O)N[C@H](C(=O)O)C(C)C` (H-ALACSALGV-OH; N-terminus and C-terminus assumed), the results for the EC50 in [1] (setting [11]) and in [1] (setting [12]) were 3.16 µM and 2.84 µM, respectively. Further, the “T cell responses observed (IFNg)” value in test [2] (Table 4) is on record as 0/4 co-cultures.

As for “AELTPELLKI (Epitope 16) [eluted 10-mer, mapped in silico to HLA-B40:01]”, the “binding to HLA-A2” value in test [1] is recorded as “did not bind to HLA-A2”.

With `CC[C@H](C)[C@H](NC(=O)[C@H](Cc1ccc(O)cc1)NC(=O)[C@@H](NC(=O)[C@H](Cc1ccc(O)cc1)NC(=O)[C@H](CC(C)C)NC(=O)[C@H](Cc1ccccc1)NC(=O)[C@H](CCC(N)=O)NC(=O)[C@@H](N)Cc1ccccc1)[C@@H](C)O)C(=O)N[C@@H](C)C(=O)O` (H-FQFLYTYIA-OH; N-terminus and C-terminus assumed), the EC50 came to 3.3 µM in test [1] (setting [10]), 3.28 µM in [1] (setting [11]) and 3.43 µM in test [1] (setting [12]). The “T cell responses observed (IFNg)” value in test [2] (setting [13]) and in test [2] (Table 4) was 1/4 co-cultures in each case. The “pMHC staining % pMHC+ CD8+ in CD3+” value in [3] is 0.43%.

With `CSCC[C@H](NC(=O)[C@@H](N)CCCCN)C(=O)N[C@@H](CC(C)C)C(=O)N[C@@H](CCCCN)C(=O)N[C@@H](CCC(=O)O)C(=O)N[C@@H](Cc1ccccc1)C(=O)N[C@@H](C)C(=O)N[C@@H](CCCCN)C(=O)N[C@@H](C)C(=O)O` (H-KMLKEFAKA-OH; N-terminus and C-terminus assumed), the EC50 in test [1] (setting [11]) amounted to 91.2 µM; in [1] (setting [12]), 38.2 µM. Also, the “T cell responses observed (IFNg)” value in [2] (Table 4) was 0/2 co-cultures.

`CC[C@H](C)[C@H](NC(=O)[C@@H](NC(=O)[C@@H](N)CC(C)C)[C@@H](C)CC)C(=O)N[C@@H](CCCNC(=N)N)C(=O)N[C@@H](C)C(=O)N[C@@H](CCC(=O)O)C(=O)N[C@@H](CCC(=O)O)C(=O)N[C@@H](CC(C)C)C(=O)N[C@@H](C)C(=O)N[C@@H](CCC(N)=O)C(=O)N[C@@H](CCSC)C(=O)O` (H-LIIRAEELAQM-OH; N-terminus and C-terminus assumed): the EC50 in [1] (setting [11]) and in test [1] (setting [12]) was 6.99 µM in each case. Moreover, in test [1], the “binding to HLA-A2” value is “did bind to HLA-A2 with high affinity”. In [2] (Table 4), the “T cell responses observed (IFNg)” value was 1/7 co-cultures. Besides, the “pMHC staining % pMHC+ CD8+ in CD3+” value in [3] came to 0.60%.

`CC(C)C[C@H](NC(=O)[C@H](C)NC(=O)[C@H](CO)NC(=O)[C@H](CS)NC(=O)[C@H](C)NC(=O)[C@H](CC(C)C)NC(=O)[C@H](C)NC(=O)[C@H](CC(C)C)NC(=O)[C@@H](N)Cc1ccccc1)C(=O)O` [FLALACSAL] (H-FLALACSAL-OH; N-terminus and C-terminus assumed): the EC50 in test [1] (Example 1, top-ranked epitopes, read-out: EC50 (HLA-A2 binding)) is 5.1 µM; in [1] (setting [11]), 5.05 µM; in test [1] (setting [12]), 4.5 µM. The “T cell responses observed (IFNg)” value in [2] (setting [13]) and in test [2] (Table 4) was 2/5 co-cultures each time. Also, in [3], the “pMHC staining % pMHC+ CD8+ in CD3+” value was 0.077%.

As for HVSRMLNYI (ROPN1B, predicted), the Minimum stability in test [4] and in [5] was 1.09 fold change over baseline in each case.

Take GLPRIPFST (ROPN1B, predicted): the Minimum stability in test [4] and in test [5] was 1.06 fold change over baseline throughout.

Regarding FLALACSAL (Synthetic peptide) [Epitope 2 peptide FLALACSAL of ROPN1 and ROPN1B], the EC50 worked out at 4.5 µM in test [6] and 5.05 µM in test [7]. Further, the Minimum stability in test [4] amounted to 1.41 fold change over baseline; in test [5], 1.62 fold change over baseline. For the same molecule, the figures for the Amplitude in test [8] and in test [9] were 0.95 relative to YLE and 3800 geometric mean normalized to baseline, respectively.
